In US20110189122A1, “Use of Molt-Accelerating Compounds, Ecdysteroids, Analogs Thereof, and Chitin Synthesis Inhibitors for Controlling Termites” (priority 2004, published 2011):

How the values were obtained:
[1] = test system: eastern subterranean termites (EST), Reticulitermes flavipes (Kollar); assay: Test #1 Choice Feeding Bait Test, Halofenozide+Hexaflumuron (treated filter paper vs. untreated SYP); assay type: in vivo; details: for % Surviving: 26 days; for mg consumed after 12 days (Mean ± SEM), treated FP: choice vs. SYP
Method: (§1) Test #1 Choice Feeding Bait Test, Halofenozide+Hexaflumuron. A paired choice feeding test was conducted to compare feeding response and resultant mortality caused by various combinations of technical grade halofenozide and hexaflumuron treated on filter paper (acetone carrier). The test apparatus consisted of two round plastic containers connected by a 7-cm long piece of 2.5-mm diameter (ID) tygon tubing. A known number of termite workers were introduced into a central harborage chamber (5.5 cm round container with ventilated lid) containing a vermiculite/sand/water mixture of ca. 1:1:1. The central harborage chamber was connected by the tygon tubing to the bait foraging chamber (without sand/vermiculite matrix) containing the paired feeding choices.
ESTs were given the choice to feed between untreated blocks of southern yellow pine (SYP) and treated filter paper. Halofenozide was tested individually at concentrations of 1250, 2500, and 5000 ppm. Hexaflumuron was tested at 5000 ppm, and also combined with each of the aforementioned concentrations of halofenozide. For comparative purposes, technical grade noviflumuron were also tested at 5000 ppm. After twelve days, all treatments were removed, oven-dried, and weighed for consumption. Filter paper was placed in all bioassay units that were held for fourteen more days. Surviving termites were then counted in each replicate. Thus, survival was counted at 26 days after initial exposure to the toxicant. Each treatment was replicated four times with 50 termites per replicate.

[2] = test system: eastern subterranean termites (EST), Reticulitermes flavipes (Kollar); assay: Test #2 Choice Feeding Bait Test, Halofenozide+Noviflumuron (treated filter paper vs. untreated SYP); assay type: in vivo; details: for mg consumed after 14 days (Mean ± SEM), untreated SYP: SYP block offered against FP with single active 5000 ppm; for No. Survivors/50 after 14 days (Mean ± SEM) / % Surviving / mg consumed after 14 days (Mean ± SEM), treated FP: single active 5000 ppm on filter paper; for % Surviving: 14 days; for mg consumed after 14 days (Mean ± SEM), treated FP: choice vs. SYP
Method: as §1
Test #2. Choice Feeding Bait Test, Halofenozide+Noviflumuron. A standard paired choice feeding test using the same methods described in Test #1 was conducted to compare feeding response and resultant mortality caused by various combinations of technical grade halofenozide and noviflumuron treated on filter paper (acetone carrier). EST were given the choice to feed between untreated blocks of southern yellow pine (SYP) and treated filter paper. Halofenozide and noviflumuron were tested individually at concentrations of 5000 ppm. Five thousand ppm (5000-ppm) noviflumuron was also tested in combination with 1250, 2500, or 5000 ppm halofenozide. After fourteen days, all treatments were removed, oven-dried, and weighed for consumption. Because of the rapid activity of noviflumuron, surviving termites were also counted in each replicate after only 14 days of feeding. Each treatment was replicated four times with 50 termites per replicate.

Amitermes wheeleri = assay: Forced feeding test on treated purified cellulosic bait; assay type: in vivo; details: 5000 ppm noviflumuron on cellulosic bait
Method: A forced feeding test was conducted to compare mortality caused by different active ingredients treated on purified cellulosic bait. The test apparatus was the same as that described in Example 5. Noviflumuron was tested on the bait at 5000-ppm concentration, and also in combination with 5000-ppm Halofenozide Blank bait was also tested. Surviving termites were also counted at 28 days after initial exposure to the toxicant.

C. formosanus [3] = assay: Feeding ecdysteroid-treated filter paper to subterranean termites, 12-day exposure; assay type: in vivo; details: for days of exposure until some termites exhibited the jackknife position (incomplete molting): treated filter paper
Method: (§2) Termites were collected from three colonies each of C. formosanus and R. flavipes and were held in the laboratory at 26±1° C. and 98±2% RH before use Technical grade ecdysone was dissolved in methanol to obtain 0.1, 1, 10, 100 and 1,000-ppm solutions by serial dilution. Methanol solutions (i.e., 0 ppm AI) were used as untreated controls. Each concentration solution (0.2 ml) was pipetted onto […] Whatman No. 1 filter paper fitted into 5-cm-diameter glass Petri dishes and allowed to evaporate overnight.
(§3) This filter paper served as the cellulose food source for twenty-five termites, plus one soldier for R. flavipes or three soldiers for C. formosanus, which were introduced into each Petri dish after moistening the filter paper with 0.175 ml deionized water. For each species, two subsamples each of three colonies were used per concentration for a total of 72 experimental units. The bioassay units was held at 26±1° C. Observation was made daily for 12 days. Termites showing symptoms of incomplete molting were counted, and dead termites were removed from each unit. […] For each treatment and species combination, mean percent termites showing symptoms of incomplete molting and mortality among concentrations at 12 day were arcsine-root transformed and subjected to the analysis of variance (ANOVA). Significant differences (α=0.05) among concentrations were separated using Fisher's least significant difference (LSD) test (SAS Institute 1999).
(§4) 20-hydroxyecdysone is an ecdysone byproduct. Technical grade 20-hydroxyecdysone (20 E) was dissolved and used in the same manners as was ecdysone, as discussed above in Example 1.

R. flavipes = assay: as above; assay type: in vivo; details: for days of exposure until some termites exhibited the jackknife position (incomplete molting): treated filter paper
Method: as §2, §3, §4

C. formosanus [4] = details: C. formosanus, 10,000 ppm, similar condition; cited from earlier work
[5] = test system: eastern subterranean termites (Reticulitermes flavipes); details: wood slice feeding blocks vacuum-impregnated with halofenozide, choice test; cited from earlier work
[6] = SYP block offered against FP with single active 5000 ppm
[7] = single active 5000 ppm on filter paper
[8] = C. formosanus, 0.1 ppm, 12-day exposure
[9] = C. formosanus, 1 ppm, 12-day exposure
[10] = C. formosanus, 10 ppm, 12-day exposure
[11] = C. formosanus, 100 ppm, 12-day exposure
[12] = C. formosanus, 1,000 ppm, 12-day exposure
[13] = C. formosanus, 1,000 ppm, 12-day exposure, listed as 20 E
[14] = R. flavipes, 0.1 ppm, 12-day exposure
[15] = R. flavipes, 1 ppm, 12-day exposure
[16] = R. flavipes, 10 ppm, 12-day exposure
[17] = R. flavipes, 100 ppm, 12-day exposure
[18] = R. flavipes, 1,000 ppm, 12-day exposure
[19] = single active 1250 ppm on filter paper
[20] = single active 2500 ppm on filter paper

SMILES	mg consumed after 12 days (Mean ± SEM), untreated SYP [1, 6]	No. Survivors/50 after 26 days (Mean ± SEM) [1, 7]	% Surviving [1, 7] [%]	mg consumed after 12 days (Mean ± SEM), treated FP [1, 7] [a mg]	mg consumed after 14 days (Mean ± SEM), untreated SYP [2]	No. Survivors/50 after 14 days (Mean ± SEM) [2]	% Surviving [2] [%]	mg consumed after 14 days (Mean ± SEM), treated FP [2] [a mg]	% Incomplete Molting (±SE) (C. formosanus [3]; [8]) [a %]	% Incomplete Molting (±SE) (C. formosanus [3]; [9]) [a %]	% Incomplete Molting (±SE) (C. formosanus [3]; [10]) [a %]	% Incomplete Molting (±SE) (C. formosanus [3]; [11]) [a %]	days of exposure until some termites exhibited the jackknife position (incomplete molting) (C. formosanus [3]; C. formosanus)	% Incomplete Molting (±SE) (R. flavipes; [14]) [a %]	% Incomplete Molting (±SE) (R. flavipes; [15]) [a %]	% Incomplete Molting (±SE) (R. flavipes; [16]) [a %]	% Incomplete Molting (±SE) (R. flavipes; [17])	days of exposure until some termites exhibited the jackknife position (incomplete molting) (R. flavipes; R. flavipes)	also measured
O=C(NC(=O)c1c(F)cccc1F)Nc1cc(Cl)c(OC(F)(F)C(F)C(F)(F)F)c(Cl)c1F (stereo not shown) [Noviflumuron, noviflumuron]	1.77 ± 1.71 b mg	5.00 ± 3.72 e	10.0	16.17 ± 3.64	2.58 ± 1.03 b mg	13.50 ± 3.52 bc	27.0	14.58 ± 2.20											% Surviving ([2]; listed as noviflumuron): 27%; No. Survivors/30 after 28 days (Amitermes wheeleri): reduced termite survivorship in half; % Surviving (Amitermes wheeleri; 28 days): 43%; No. Survivors/30 after 28 days (Amitermes wheeleri; listed as noviflumuron): 12
CC(C)(O)CC[C@@H](O)[C@](C)(O)[C@H]1CC[C@@]2(O)C3=CC(=O)[C@@H]4C[C@@H](O)[C@@H](O)C[C@]4(C)[C@H]3CC[C@]12C [20-hydroxyecdysone]									0.00 ± 0.00	0.00 ± 0.00	0.00 ± 0.00	2.38 ± 1.19	approximately 7 days	0.00 ± 0.00	0.00 ± 0.00	0.00 ± 0.00	3.85 ± 1.40ab %	approximately 7 days	% Mortality (±SE) (C. formosanus [3]; [8]): 1.19 ± 0.75ab %; % Mortality (±SE) (C. formosanus [3]; [9]): 10.12 ± 9.42bc %; % Mortality (±SE) (C. formosanus [3]; [10]): 3.57 ± 2.26abc %; % Mortality (±SE) (C. formosanus [3]; [11]): 11.90 ± 5.43c %; % Incomplete Molting (±SE) (C. formosanus [3]; [12]): 26.19 ± 6.09b %; % Mortality (±SE) (C. formosanus [3]; [12]): 74.40 ± 3.62d %; % Incomplete Molting (±SE) (C. formosanus [3]; [13]): evident; % Mortality (±SE) (C. formosanus [3]; [13]): ca. 75%; % Mortality (±SE) (R. flavipes; [14]): 0.64 ± 0.64a %; % Mortality (±SE) (R. flavipes; [15]): 0.00 ± 0.00a %; % Mortality (±SE) (R. flavipes; [16]): 0.64 ± 0.64a %; % Mortality (±SE) (R. flavipes; [17]): 76.19 ± 11.28b %; % Incomplete Molting (±SE) (R. flavipes; [18]): 7.69 ± 3.29b %; % Mortality (±SE) (R. flavipes; [18]): 100%; % Incomplete Molting (±SE) (R. flavipes; R. flavipes, 1,000 ppm, 12-day exposure, listed as 20 E): evident
C[C@H]([C@H](O)CCC(C)(C)O)[C@H]1CC[C@@]2(O)C3=CC(=O)[C@@H]4C[C@@H](O)[C@@H](O)C[C@]4(C)[C@H]3CC[C@]12C [ecdysone]									0.00 ± 0.00	0.00 ± 0.00	2.38 ± 2.38	8.33 ± 5.95	approximately 7 days	0.00 ± 0.00	0.00 ± 0.00	0.00 ± 0.00	0.00 ± 0.00a %	approximately 7 days	mortality at 0.1 ppm (C. formosanus [3]; Coptotermes formosanus, 288 h, C. formosanus, 0.1 ppm, 12-day exposure, read-out: % Mortality (±SE)): 1.79 ± 1.22%; mortality at 1 ppm (C. formosanus [3]; Coptotermes formosanus, 288 h, C. formosanus, 1 ppm, 12-day exposure, read-out: % Mortality (±SE)): 1.19 ± 0.75%; mortality at 10 ppm (C. formosanus [3]; Coptotermes formosanus, 288 h, C. formosanus, 10 ppm, 12-day exposure, read-out: % Mortality (±SE)): 11.3 ± 6.55%; mortality at 100 ppm (C. formosanus [3]; Coptotermes formosanus, 288 h, C. formosanus, 100 ppm, 12-day exposure, read-out: % Mortality (±SE)): 100%; mortality at 1000 ppm (C. formosanus [3]; Coptotermes formosanus, 288 h, C. formosanus, 1,000 ppm, 12-day exposure, read-out: % Mortality (±SE)): 93.5 ± 6.55%; mortality at 0.1 ppm (R. flavipes; Reticulitermes flavipes, 288 h, R. flavipes, 0.1 ppm, 12-day exposure, read-out: % Mortality (±SE)): 0%; mortality at 1 ppm (R. flavipes; Reticulitermes flavipes, 288 h, R. flavipes, 1 ppm, 12-day exposure, read-out: % Mortality (±SE)): 0%; mortality at 10 ppm (R. flavipes; Reticulitermes flavipes, 288 h, R. flavipes, 10 ppm, 12-day exposure, read-out: % Mortality (±SE)): 0%; mortality at 100 ppm (R. flavipes; Reticulitermes flavipes, 288 h, R. flavipes, 100 ppm, 12-day exposure, read-out: % Mortality (±SE)): 60.3 ± 18.1%; mortality at 1000 ppm (R. flavipes; Reticulitermes flavipes, 288 h, R. flavipes, 1,000 ppm, 12-day exposure, read-out: % Mortality (±SE)): 100%
O=C(NC(=O)c1c(F)cccc1F)Nc1cc(Cl)c(OC(F)(F)C(F)F)c(Cl)c1 [Hexaflumuron, hexaflumuron]	9.28 ± 3.55 b mg	32.5 ± 5.48 bc	65.0	21.20 ± 2.06															
CC(C)(C)N(NC(=O)c1ccc(Cl)cc1)C(=O)c1ccccc1 [Halofenozide, halofenozide]	14.97 ± 3.85 a mg	23.25 ± 7.88 days	46.5	9.33 ± 1.41	8.35 ± 3.91 a mg	22.25 ± 5.36 b	44.5	10.12 ± 1.48											mg consumed after 12 days (Mean ± SEM), untreated SYP ([1]; SYP block offered against FP with single active 1250 ppm): 9.49 ± 2.57 a mg; mg consumed after 12 days (Mean ± SEM), untreated SYP ([1]; SYP block offered against FP with single active 2500 ppm): 7.92 ± 2.13 a mg; No. Survivors/50 after 26 days (Mean ± SEM) [1, 19]: 45.00 ± 2.04 a; % Surviving [1, 19]: 90.0%; mg consumed after 12 days (Mean ± SEM), treated FP [1, 19]: 16.05 ± 3.39 a mg; No. Survivors/50 after 26 days (Mean ± SEM) [1, 20]: 33.75 ± 6.56 bc; % Surviving [1, 20]: 67.5%; mg consumed after 12 days (Mean ± SEM), treated FP [1, 20]: 18.70 ± 4.32 a mg; mortality (C. formosanus [4]): 50%; concentrations at which feeding deterrence occurs [5]: greater than 4,000 ppm
